Entries after “also recorded” stand apart in the source; their conditions may differ.

A word on the IC50: it is the concentration at which inhibition is half-maximal.

The test system of one series is noninfected CEM-SS cells. The series can be described thus: Toxic effect on noninfected cells (formazan formation), CEM-SS. The following applies: at least 50% inhibition of formazan formation, 5 days. As to the method: (§1) The toxic effect on the noninfected cells is assessed by calorimetric reaction based on the capacity of live cells to reduce 3-(4,5-dimethylthiozol-2-yl)-2,5-diphenyltetrazolium bromide to formazan after incubating for 5 days in the presence of various concentrations of the compounds.

A further series deals with noninfected PBM cells. The series can be described thus: Toxic effect on noninfected cells (formazan formation), PBM. The settings on record: at least 50% inhibition of formazan formation, 5 days. As to the method:
as §1

Another series concerns noninfected PBMC. The series can be described thus: Toxic effect on noninfected cells (formazan formation), PBMC. The settings on record: at least 50% inhibition of formazan formation, 5 days. As to the method:
as §1

Series [1] relates to HIV. The following applies: CEM cell culture; Mansuri et al. 1991; read-out: IC50 against HIV; cited from earlier work.
The test system of series [2] is HIV. The settings on record: prior art reports; listed as β-L-DDC; cited from earlier work.
Series [3] relates to herpes simplex viruses (HSV). The following applies: cell cultures; Spadari et al. 1992; cited from earlier work.

In the case of `Cc1cn([C@H]2C[C@H](N=[N+]=[N-])[C@@H](CO)O2)c(=O)[nH]c1=O` [AZT, reference compound], the CD50 is >10^−4 M in the series on noninfected CEM-SS cells, 7e-05 M with noninfected PBM cells and 8e-05 M in the series on noninfected PBMC.
`Nc1ccn([C@@H]2CC[C@H](CO)O2)c(=O)n1` [Compound 21a, 2′,3′-dideoxy-β-L-cytidine]: in the series with HIV [1], the IC50 was 660 nM. For the same compound, the CD50 is 8.3e-05 M in the series on noninfected CEM-SS cells, 10^−4 M in the series on noninfected PBM cells and 10^−4 M with noninfected PBMC. Also, the “activity against HIV (in words)” value in the series on HIV [2] was “relatively limited antiviral activity; also recorded: no activity against HIV”.
`Nc1nc(=O)n([C@@H]2CC[C@H](CO)O2)cc1F` [Compound 21b, 2′,3′-dideoxy-β-L-5-fluorocytidine]: the CD50 was 9e-05 M in the series on noninfected CEM-SS cells, 10^−4 M with noninfected PBM cells and 10^−4 M in the series with noninfected PBMC.
With `Nc1ccn([C@H]2CC[C@@H](CO)O2)c(=O)n1` [DDC, reference compound], the results for the CD50 with noninfected CEM-SS cells, with noninfected PBM cells and with noninfected PBMC were 6e-05 M, 7e-05 M and 2.5e-05 M, respectively.
With `Cc1cn([C@@H]2C[C@@H](O)[C@H](CO)O2)c(=O)[nH]c1=O` [β-L-Thymidine], in series [3], the “antiviral activity against HSV (in words)” value is given as “relatively limited antiviral activity”.

The record behind these values is patent US7439351B2, “2′ or 3′ -deoxy and 2′, 3′-dideoxy-β-L-pentofuranonucleo-side compounds, method of preparation and application in therapy, especially as anti-viral agents” (The UAB Research Foundation, priority 1993, dated 2008).
